This is an account of results in patent US20070219180A1, “Muscle Relaxtion Accelerator and Therapeutic Agent for Muscular Tissue Diseases Such as Muscle Relaxation Failure” (priority 2004, published 2007).

One assay concerns white rabbits. In words: Experiment 8: inhibition of clofilium-induced torsades de pointes. The format is in vivo, rabbit. How it is done:
Inhibition of clofilium-induced torsades de pointes by the compound In this experiment, four white rabbits (weight: 2.8-3.2 kg) were used. Each rabbit was intravenously anesthetized with 5 mg/kg methohexital sodium. Injection catheters for the compound and test drug were inserted into the right external jugular veins of the rabbits, and microchip catheters (SPC-320, Millar) for blood pressure measurement were inserted via the right common arteries, under artificial respiration by endotracheal intubation.
The compound solution was prepared by dissolving 100 mg of the compound in 1 ml of dimethylsulfoxide (DMSO), and stored at 4° C.
A 2-lead electrocardiogram and blood pressure of each rabbit were recorded simultaneously on a personal computer via an A/D converter. In this experiment, a sequence of more than 6 polymorphic ventricular tachycardia configurations on the electrocardiogram was defined as torsades de pointes. The number of onsets of torsades de pointes was recorded by electrocardiogram for 30 minutes after administration of clofilium. Methoxamine (an α-stimulant) was used to rapidly induce torsades de pointes. The compound, methoxyamine and clofilium were administered in physiological saline. […]

The next assay has as its system male Wistar rats. The assay is described as follows: Experiment 11: protective effect on diastolic dysfunction of the myocardium (compound given before norepinephrine). It is filed as in vivo, rat. Here is the method: This experiment was performed to examine the protective effect of the compound on left ventricular diastolic dysfunction, and the compound was administered 5 minutes before administration of the norepinephrine solution referred to in Experiment 1, in which a calcium solution and a norepinephrine solution were administered after calcium administration for 20 minutes.
In this experiment, the 1,4-benzothiazepine derivative or pharmaceutically acceptable salt thereof was used as the compound.
Eight-week old male Wistar rats weighing 310-320 g were used in the study. The rats were anesthetized with 1,000 mg/kg of urethane and 80 mg/kg of α-chloralose by subperitoneal injection under artificial respiration (SN-480-7, Shinano) using endotracheal intubation. In this experiment, 100 mg of the compound was dissolved in 1 ml of dimethylsulfoxide (DMSO) and the resulting DMSO solution of the compound was stored at 4° C. Norepinephrine solution was prepared by dissolving 1 mg of norepinephrine in 41 μl of distilled water, at an infusion speed of […].
Firstly, continuous infusion catheters of calcium chloride solution or norepinephrine solution containing calcium chloride were inserted into the right external jugular veins of the rats, microchip catheters (SPC-320, Millar) was inserted into the left ventricles via the right common arteries, and the left ventricular end-diastolic pressure was measured. In addition, test drug infusion catheters were inserted into the right femoral veins.
A 1-lead electrocardiogram and the left ventricular pressure were recorded simultaneously on a personal computer via an A/D converter. The left ventricular diastolic pressure was determined as the mean of data measured over 20 heart beats every 5 minutes, when the pressure equivalent to the R wave of the electrocardiogram was defined as the left ventricular diastolic pressure. In the preparation step, blood pressure, pulse, and electrocardiogram of the rats were monitored for 15 minutes and allowed to stabilize, and then 5% dextrose solution containing calcium chloride (at a concentration based on the weight of the rat) was infused into the right external jugular vein for 20 minutes at 16.6 μl/min (12.0 mg/kg/min of calcium chloride).
Secondly, a norepinephrine solution containing calcium chloride without a change in dosage was immediately injected at a rate of 30 μg/kg/min via the right external jugular vein. After the start of administration, calcium chloride and norepinephrine were then continuously injected in the form of a norepinephrine solution containing calcium chloride. With continuous injection of calcium chloride and norepinephrine (in the form of a norepinephrine solution containing calcium chloride) via the right external jugular vein, 0.2 ml of 1% DMSO solution of the solvent used for the test compound was administered over 30 seconds to a rat (weight: 310 g, Control; this animal was not administered the compound) via the right femoral vein, 5 minutes before commencement of injection (intravenous injection) of calcium chloride and norepinephrine (in the form of a norepinephrine solution containing calcium chloride) via the right external jugular vein.
Similarly to the Control, with continuous injection of calcium chloride and norepinephrine (in the form of a norepinephrine solution containing calcium chloride) via the right external jugular vein, 0.2 ml of a 1% DMSO solution containing 0.3 mg/kg of the compound was administered over 30 seconds to a rat (weight: 320 g, defined as Test 14) via the right femoral vein, 5 minutes before commencement of injection (intravenous injection) via the right external jugular vein of calcium chloride and norepinephrine. Furthermore, in this experiment, after the test drug was injected over 30 seconds, a 1:10 dilution of the injected test drug was additionally administered at 10 μl/min from commencement of test drug injection to 15 minutes after the start of administration. […]

The structures appear in SMILES notation.

In the case of `COc1ccc2c(c1)CN(C(=O)CCN1CCC(Cc3ccccc3)CC1)CCS2` [the compound, 4-[3-(4-benzylpiperidine-1-yl)propionyl]-7-methoxy-2,3,4,5-tetrahydro-1,4-benzothiazepine], the “Onset of torsades de pointes (electrocardiogram)” value in the assay on white rabbits (clofilium 50 μg/kg/min + the compound 0.2 mg/kg/min i.v., monitored 30 minutes) is “completely prevented”. Besides, the “Incidence of torsades de pointes” value in the assay with white rabbits (number of onsets in 30 minutes after start of clofilium 50 μg/kg/min under methoxamine 15 μg/kg/min, the compound 0.2 mg/kg/min i.v. for 30 min) came to 0. Moreover, the “left ventricular end-diastolic pressure” value with male Wistar rats (Test 14: 0.3 mg/kg i.v. over 30 s 5 min before norepinephrine, then 0.02 mg/kg/min, 25 minutes before (5 minutes before the start of CaCl2), baseline) came out at 7.2 mmHg; with male Wistar rats (Test 14: 0.3 mg/kg i.v. over 30 s then 0.02 mg/kg/min, 5 minutes after the start of test drug (just before the start of norepinephrine)), 8.0 mmHg; with male Wistar rats (Test 14: 0.3 mg/kg i.v. over 30 s then 0.02 mg/kg/min, 10 minutes after the start of test drug (5 minutes after the start of norepinephrine 30 μg/kg/min)) it was 14.5 mmHg; in the assay on male Wistar rats (Test 14: 0.3 mg/kg i.v. over 30 s then 0.02 mg/kg/min, 10 minutes before (10 minutes after the start of CaCl2), baseline), 7.9 mmHg; in the assay with male Wistar rats (Test 14: 0.3 mg/kg i.v. over 30 s then 0.02 mg/kg/min, 15 minutes after the start of test drug (10 minutes after the start of norepinephrine 30 μg/kg/min)), 18.3 mmHg; with male Wistar rats (Test 14: 0.3 mg/kg i.v. over 30 s then 0.02 mg/kg/min, 20 minutes before (just after the start of CaCl2), baseline), 7.7 mmHg. Moreover, the “left ventricular end-diastolic pressure” value with male Wistar rats (Test 14: 0.3 mg/kg i.v. over 30 s then 0.02 mg/kg/min, just before test drug (20 minutes after the start of CaCl2), baseline) came out at 8.1 mmHg.
